From article PMC9597362, “The thiophene α-terthienylmethanol isolated from Tagetes minuta inhibits angiogenesis by targeting protein kinase C isozymes α and β2” (Frontiers in Pharmacology, 2022)
Like-named read-outs stand apart in the source and are kept apart here.

What was measured:
[1] = tested on: bovine aortic endothelial cells (BAECs); test: VEGF-induced tube formation assay; format: cell-based; conditions: for antiangiogenic activity in tube formation: pure compounds, maximum concentration 30 μM; for IC50: Bos taurus, BAEC
Experimental: The experiment was performed according to Arnaoutova and Kleinman ([Arnaoutova and Kleinman, 2010]). Briefly, BAECs (1.5 × 10^4 cells) were placed on a 96-well plate previously coated with Matrigel®. The plates were incubated for 18 h (37°C, 5% CO2) in the presence and absence of the tested extracts or the pure compounds, at a maximum concentration of 100 μg/ml and 30 μM, respectively, with the addition of VEGF (10 ng/ml) as angiogenic stimuli. […] Controls without or with ethanol (negative control) were simultaneously run. The final concentration of vehicle per well in this and all the experiments described herein was 1% v/v. […] The images were obtained with an inverted microscope and analyzed with the ImageJ software. The tubular structures were quantified. The percentages of inhibition (I%) were calculated as I% = [1−(total tube length treatment/total tube length control)] × 100. Each condition was assessed in triplicate. Each experiment was performed independently three times.

[2] = tested on: 1:1 mixture of recombinant PKC-α and -β2 isozymes; conditions: 1:1 mixture α and β, cited from earlier work; for Log(IC50/M): given as log of IC50 in M (negative)
[3] = tested on: MDA-MB-231 cells; test: Matrigel (Boyden chamber) invasion assay, MDA-MB-231; format: cell-based, human; conditions: 30 μM, 16 h, 10% FBS chemoattractant
[4] = tested on: BAEC cells; test: Matrigel (Boyden chamber) invasion assay, BAEC; format: cell-based, bovine; conditions: 24 h, VEGF 10 ng/ml chemoattractant, relative to control
[5] = tested on: PKC-β; conditions: cited from earlier work; for Log(IC50/M): given as log of IC50 in M (negative)
[6] = tested on: PKC-α; conditions: cited from earlier work; for Log(IC50/M): given as log of IC50 in M (negative)

Question: With `Cc1ccc(-c2ccc(C#CCCO)s2)s1` [Compound 1, 5′-methyl-[5-(4-hydroxy-1-butynyl)]-2,2′-bithiophene] as the molecule, how does the “antiangiogenic activity in tube formation” value [1] read?
Answer: devoid of activity

Question: Which “antiangiogenic activity in tube formation” value [1] does the source give for `OCCC#Cc1ccc(-c2cccs2)s1` [Compound 2, 5-(4-hydroxybut-1-ynyl)-2,2′-bithiophene] here?
Answer: devoid of activity

Question: Which results are given for `OCc1ccc(-c2ccc(-c3cccs3)s2)s1` [Compound 3, 5-hydroxymethyl-2,2':5′,2″-terthiophene]?
Answer: IC50 ([1]; conversion of the μM value, read-out: IC50 tube formation expressed): ~0.8 µg/mL; IC50 ([1]; pure compound, VEGF-induced, 18 h, read-out: IC50 tube formation): 2.7 ± 0.4 µM; antiangiogenic effect compared with axitinib 10 μM ([1]; at 1.2 μM, p > 0.05): comparable to that of 10 μM of the potent angiogenesis inhibitor axitinib; IC50 ([2]; ref Kim et al. (1998)): 4 µM; reduction of cell invasion [3]: 32.7 ± 3.1%; invasive cells ([4]; 10 μM): 15.7 ± 2.5%; invasive cells ([4]; 30 μM): 1.6 ± 0.4%; Log(IC50/M) ([5]; listed for PKC β, ref Kim et al. (1998)): −5.3979; IC50 ([5]; listed for PKC β, source assay used 1:1 mixture of PKC-α and -β2, ref Kim et al. (1998)): 4 µM; Log(IC50/M) ([6]; listed for PKC α, ref Kim et al. (1998)): −5.3979

Question: For `O=Cc1ccc(-c2ccc(-c3ccc(C=O)s3)s2)s1` [DAT], which IC50 ([2]; ref Kim et al. (1998)) is on record?
Answer: 0.3 µM

Question: What about the “Log(IC50/M)” value ([2]; ref Kim et al. (1998)) of the same molecule?
Answer: −6.5229

Question: For `Cn1cc(C2=C(c3cn(C4CCN(Cc5ccccn5)CC4)c4ccccc34)C(=O)NC2=O)c2ccccc21` [ENZ, Enzastaurin], which IC50 ([5]; PKC β, ref Graff et al. (2005)) is on record?
Answer: […]

Question: For `N=C(N)NCCNS(=O)(=O)c1cccc2cnccc12` [H4, N-(2-guanidinoethyl)isoquinoline-5-sulfonamide], which IC50 ([2]; ref Kinsella et al. (1992)) is on record?
Answer: 10 µM

Question: What about the “Log(IC50/M)” value ([2]; ref Kinsella et al. (1992)) of the same molecule?
Answer: −5.0000

Question: With `CC1CNCCN1S(=O)(=O)c1cccc2cnccc12` (stereo not drawn) [H7, 1-(5-Isoquinolinesulfonyl)-2-methylpiperazine] as the molecule, how does the IC50 ([2]; ref Kinsella et al. (1992)) read?
Answer: 40 µM

Question: What about the “Log(IC50/M)” value ([2]; ref Kinsella et al. (1992)) of the same molecule?
Answer: −4.3979

Question: With `CN1CCN(c2nc(C3=C(c4c[nH]c5ccccc45)C(=O)NC3=O)c3ccccc3n2)CC1` [NVP, 3-(1H-indol-3-yl)-4-[2-(4-methylpiperazin-1-yl)quinazolin-4-yl]-1H-pyrrole-2,5-dione] as the molecule, how does the “Log(IC50/M)” value ([6]; PKC α, ref Evenou et al. (2009)) read?
Answer: −9.0223

Question: For `CN(C)C[C@@H]1CCn2cc(c3ccccc32)C2=C(C(=O)NC2=O)c2cn(c3ccccc23)CCO1` [RUB, Ruboxistaurin], which IC50 ([5]; PKC β, ref Tang et al. (2008)) is on record?
Answer: […]

Question: And the “Log(IC50/M)” value ([5]; PKC β, ref Tang et al. (2008))?
Answer: […]

Question: What about the IC50 ([6]; PKC α, ref Tang et al. (2008)) of the same molecule?
Answer: […]

Question: For `c1csc(-c2ccc(-c3cccs3)s2)c1` [TT, Terthiophene], which IC50 ([2]; ref Kim et al. (1998)) is on record?
Answer: 10 µM

Question: And the “Log(IC50/M)” value ([2]; ref Kim et al. (1998))?
Answer: −5.0000
